We go through three molecules from US20240272164A1, “METHODS FOR CLASSIFYING TUMORS AND USES THEREFOR” (THE UNIVERSITY OF QUEENSLAND, priority 2015, published 2024).

Structures are written as SMILES. “Also recorded” adds a separate entry of the source.

What all share (type): cell-based
For one series, the system named is breast cancer cell lines. An excerpt:
Dyngo4a, a small molecule inhibitor of dynamin, was used to block dynamin-mediated endocytosis (Mccluskey et al., 2013) and added into the immune-dependent cytotoxicity assays. […] However, the specific cell death of BT474 cells was not enhanced following treatment with Dyngo4a (FIG. 4C).

Series [1] has as its system Cetuximab-sensitive or resistant cell lines. Briefly: ADCC in response to Cetuximab with endocytosis inhibitors. The note with it: either Cetuximab-sensitive or resistant cell lines. As to the method: If only the plasma membrane levels of HER1 determine ADCC response then we would expect that any pharmacological blockade of HER1 internalization would be expected to enhance ADCC. Thus, numerous endocytosis inhibitors were tested to investigate this hypothesis.

A further series has as its system A431 cells. Briefly: EGF-Alexa488 uptake and clathrin localisation, confocal and 3D-SIM super-resolution microscopy. The note with it: for Internalization of EGF-Alexa488: 30 min drug, EGF-Alexa488 last five minutes, confocal, FIG. 7A-C; for Clathrin recruitment to the plasma membrane: 3D-SIM volume projections, FIG. 7G-I; for Effect on HER1 (EGFR) at the plasma membrane: Pitstop-2 30 μM or chlorpromazine 18 μM, 30 min.

Description for A431 cells: To discuss the experiments in more detail, A431 cells were incubated in serum-free medium with no drugs (control), or with Pitstop®-2 for 30 min or chlorpromazine for 30 min. During the last five minutes of treatment EGF-Alexa488 was added to monitor CME, after which cells were fixed and imaged (FIG. 7A-C).
Volume projections of a small area of the cell periphery were used to examine the recruitment of clathrin and EGF-positive sites to the cell periphery (FIG. 7G-I). The angle of 3D projection was chosen to show the upper surface of the cell plasma membrane. Points of co-localisation between EGF-Alexa^488 and Alexa^594-conjugated antibodies (which detects clathrin) are rare in 3D-SIM due to the capture of frequency information differences between the 488 and 594 excitation/emission spectra. […] A clathrin punctum was defined as being recruited an HER1-positive site when there was 50 nm or less distance between the clathrin and EGF puncta.
A431 cells were seeded on coverslips in 12-well plates and incubated overnight to reach 80% confluence for super-resolution microscopy based on structured illumination. After a 3 hour-serum starvation the cells were treated with 30 μM of Pitstop®-2 or 18 μM chlorpromazine for 30 min, followed by 5 min uptake with EGF-Alexa488 (100 ng/ml). The uptake of EGF was stopped by washing three times in ice cold PBS. The cells were fixed in 4% paraformaldehyde/phosphate-buffered saline for 30 min and washed three times in phosphate-buffered saline before DAPI staining for 30 min. The coverslips were mounted on slides in Prolong Gold (Life technologies) for confocal analysis or glycerol-based imaging media for three dimensional structured illumination microscopy (3D-SIM). Confocal images were acquired using a Zeiss 510 Meta confocal with a 63 Å˜ objective. Reconstructing the subsequent images after modulating the illumination pattern produces super-resolution images with double the lateral and axial resolution and up to 10 μm into the cell. 3D-SIM images were captured on a Deltavision OMX V3 Imaging System (Applied Precision), EMCCD cameras (CascadeII 512×512 Photometrics) and using a 60×1.4-NA UPlanSApo oil-immersion objective (Olympus) with oil of a refractive index of 1.518. […] Images were computationally reconstructed using Deltavision SoftWorX6.0 Beta 19 software (Applied Precision).

As for `O=C(N/N=C/c1cc(O)c(O)cc1O)c1cc2ccccc2cc1O` [Dyngo4a], in the series with breast cancer cell lines, the “Toxicity of Dyngo4a” value is recorded as “non-toxic”.

On to `O=C1NC(=NS(=O)(=O)c2cccc3ccccc23)S/C1=C\c1ccc(Br)cc1` [Pitstop®-2], for which the “Effect on ADCC in response to Cetuximab” value in series [1] is recorded as “did not increase ADCC”. For the same molecule, in the series with A431 cells (A431 cells), the “Internalization of EGF-Alexa488” value is “no internalization” and the “Clathrin recruitment to the plasma membrane” value is on record as “clathrin was not recruited”. The “Inhibition of CCV (clathrin coated vesicle) formation” value in the series on A431 cells (A431 cells, confocal and 3D-SIM) was “inhibits CCV formation”. Further, the “Effect on HER1 (EGFR) at the plasma membrane” value in the series on A431 cells is “caused HER1 to be trapped on the plasma membrane”.

Regarding `CN(C)CCCN1c2ccccc2Sc2ccc(Cl)cc21` [chlorpromazine], in the series on A431 cells (A431 cells), the “Internalization of EGF-Alexa488” value was “no internalization” and the “Clathrin recruitment to the plasma membrane” value is given as “does not inhibit clathrin recruitment”. Also, the “Effect on HER1 (EGFR) at the plasma membrane” value in the series with A431 cells is “clustering and recruitment of HER1 into CCVs; also recorded: abundant EGFR was trapped at the cell membrane”.
